Reference: article PMC10411625, “Rationally designed stapled peptides allosterically inhibit PTBP1–RNA-binding” (Chemical Science, 2023)
pKi: −log10 of the molar value.

Target: T1, PTBP1 RRM12-L151G (Homo sapiens, UniProt P26599, L151G)
T1 construct: (P57-V265); MBP (from pMAL vector); His tag; made in house; host or cells: E. coli BL21 DE3 RIL
T1 sequence (P26599 57-265 L151G): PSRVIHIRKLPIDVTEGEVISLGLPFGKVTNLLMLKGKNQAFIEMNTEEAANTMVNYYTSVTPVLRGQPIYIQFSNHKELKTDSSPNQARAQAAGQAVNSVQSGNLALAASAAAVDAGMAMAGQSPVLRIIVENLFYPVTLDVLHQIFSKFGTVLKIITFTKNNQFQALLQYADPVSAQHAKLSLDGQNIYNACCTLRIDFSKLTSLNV
Assay: Competitive fluorescence polarization assay, RRM12-L151G and RNA-2
Type: binding
Conditions: Fig. 3C; competitive FP with RNA-2; read-out: P-6 Ki, construct RRM12-L151G
From the text: Different PTBP1 variants were used to investigate the mode of action of P-6via competitive FP experiments. As illustrated in Fig. 1A there is a short linker between RRM1 and the α3-helix which also makes contacts with the RNA. It is possible that when P-6 occupies the binding site of the helix, this linker is displaced disrupting its interactions with the RNA and lowering the RNA-binding affinity. To test this, we measured whether P-6 could inhibit RRM1 RNA-binding. […] Therefore, it seems most likely that P-6 inhibits RRM12 via disturbing the coordinated RNA-binding of the two RRM domains. As this is possibly regulated by the helix we tested if the peptide could inhibit RRM12–L151G where the role of the helix is reduced (Fig. 3C and S5 ^†). […] These findings further support a mode of action where P-6 disturbs coordinated RNA-binding by RRM1 and 2. […]
size exclusion chromatography (Superdex 75 16/60 or 26/60) with SEC buffer (50 mM Tris, 200 mM NaCl). Protein homogeneity was assessed by the size exclusion chromatogram and purity was checked by SDS-PAGE analysis to be >= 90%.
The gene encoding for SRSF1-RRM12 (1-195) was subcloned into pOPIN-His expression vector and expressed in E. coli BL21 (DE3). […]
Fluorescence polarization assay with PTBP1 […]

CC(=O)N[C@@H](CC(N)=O)C(=O)N[C@@H](CCC(N)=O)C(=O)N[C@@]1(C)CCCC=CCCCC2(CCCC=CCCC[C@](C)(C(=O)N[C@H](C(=O)N[C@@H](CC(N)=O)C(N)=O)C(C)C)NC(=O)[C@H](CCC(N)=O)NC(=O)[C@H](CC(C)C)NC(=O)[C@H](C)NC2=O)NC(=O)[C@H](CCC(N)=O)NC(=O)[C@H](C)NC(=O)[C@H](CCCNC(=N)N)NC1=O (stereo partly shown) [Peptide P-6]
pKi: < 3.12
